Results taken from PMC10541190 (The Journal of Clinical Investigation, 2023).
Several values for one entry are separate records, joined by “and”; a condition that tells them apart may be missing. Equal entries are not always repeated. Where two headings read alike, the source gives them in different places.

Tests used:
[1] = in vitro; settings: human, Huh7 cell viability (%)
[2] = system: SARS-CoV-2 (USA-WA1/2020); assay: microbe, parasite or virus in culture; type: cell-based; settings: for EC50: Severe acute respiratory syndrome coronavirus 2, Vero, 24 h, read-out: SARS-CoV-2 EC50
[3] = in vitro; settings: African green monkey
[4] = in vitro; settings: human
[5] = system: VEEV (TC-83); type: cell-based
[6] = system: SARS-CoV-2 (Belgium-GHB-03021); type: cell-based
[7] = system: DENV2; type: cell-based
[8] = system: VEEV (TC-83); assay: microbe, parasite or virus in culture; type: cell-based; settings: Venezuelan equine encephalitis virus, U-87 MG, read-out: EC50, VEEV (TC-83) infection
[9] = biological target: T1, ErbB4 (Homo sapiens, UniProt Q15303); settings: read-out: KD of binding or IC50 (nM), ErbB4; cited from earlier work
T1 sequence (Q15303 26-1308): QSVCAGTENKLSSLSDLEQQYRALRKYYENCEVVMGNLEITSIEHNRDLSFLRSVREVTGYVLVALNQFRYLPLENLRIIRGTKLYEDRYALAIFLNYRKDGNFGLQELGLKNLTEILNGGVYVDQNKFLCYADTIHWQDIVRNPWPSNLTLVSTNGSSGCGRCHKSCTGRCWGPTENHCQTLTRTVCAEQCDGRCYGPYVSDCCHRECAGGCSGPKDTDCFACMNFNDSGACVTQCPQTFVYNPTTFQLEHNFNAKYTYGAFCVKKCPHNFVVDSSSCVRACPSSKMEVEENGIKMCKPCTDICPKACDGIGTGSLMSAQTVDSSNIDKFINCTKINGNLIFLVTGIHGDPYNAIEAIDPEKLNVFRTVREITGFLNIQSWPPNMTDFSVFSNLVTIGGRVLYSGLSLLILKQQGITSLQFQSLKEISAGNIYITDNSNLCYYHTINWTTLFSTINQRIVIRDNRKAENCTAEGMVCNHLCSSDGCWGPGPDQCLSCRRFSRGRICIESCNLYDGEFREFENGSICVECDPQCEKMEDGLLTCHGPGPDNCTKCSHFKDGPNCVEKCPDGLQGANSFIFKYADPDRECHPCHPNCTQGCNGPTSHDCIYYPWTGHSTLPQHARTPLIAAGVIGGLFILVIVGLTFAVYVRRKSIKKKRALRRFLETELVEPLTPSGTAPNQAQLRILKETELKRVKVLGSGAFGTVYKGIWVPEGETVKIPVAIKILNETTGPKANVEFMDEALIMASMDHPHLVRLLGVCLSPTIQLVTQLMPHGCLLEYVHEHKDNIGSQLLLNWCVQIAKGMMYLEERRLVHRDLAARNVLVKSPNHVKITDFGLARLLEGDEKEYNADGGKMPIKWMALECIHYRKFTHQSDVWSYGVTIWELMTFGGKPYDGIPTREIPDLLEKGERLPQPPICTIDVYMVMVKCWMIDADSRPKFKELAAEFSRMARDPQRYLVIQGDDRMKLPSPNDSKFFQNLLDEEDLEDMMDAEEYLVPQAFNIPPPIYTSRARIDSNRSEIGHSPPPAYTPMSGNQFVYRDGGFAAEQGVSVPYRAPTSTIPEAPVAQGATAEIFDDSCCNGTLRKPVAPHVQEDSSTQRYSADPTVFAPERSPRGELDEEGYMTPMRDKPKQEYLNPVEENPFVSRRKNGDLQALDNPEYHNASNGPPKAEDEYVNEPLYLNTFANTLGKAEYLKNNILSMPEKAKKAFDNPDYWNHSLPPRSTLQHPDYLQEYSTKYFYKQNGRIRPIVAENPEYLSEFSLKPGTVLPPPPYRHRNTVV

[10] = system: SARS-CoV-2 (USA-WA1/2020); assay: microbe, parasite or virus in culture; type: cell-based; settings: Severe acute respiratory syndrome coronavirus 2, Calu-3, read-out: EC50, SARS-CoV-2 infection
[11] = biological target: T1, ErbB4; assay: biochemical; settings: read-out: ErbB4 activity (%)
[12] = system: ErbB1 (EGFR); settings: read-out: KD of binding or IC50 (nM), ErbB1; cited from earlier work
[13] = in vitro; settings: human; remark: listed apart in the source
[14] = system: Huh7 cells; settings: human
[15] = system: Vero cells
[16] = system: U-87 MG cells; settings: human

## CC(C)(C)c1cc(C=C(C#N)C#N)cc(C(C)(C)C)c1O [Tyrphostin A9]
[1]
  viability at 0.37 µM: 101%
  viability at 3.33 µM: 89.2%
  viability at 10 µM: 88%
  viability at […]: 90.8% and 98.7%
[2]
  EC50: 16500 nM
[3]
  CC50: > 20 µM
[4]; U-87 MG cell viability (%)
  viability at 0.25 µM: 96.7%
  viability at 0.74 µM: 85%
  viability at 2.22 µM: 85.2%
  viability at 6.67 µM: 78.3%
  viability at 20 µM: 70.1%
[5]
  anti-TC-83 and DENV2 activity compared with anti-SARS-CoV-2 activity: more potent

## COc1ccc2cc1Oc1ccc(cc1)C[C@H]1c3cc(c(OC)cc3CCN1C)Oc1c(OC)c(OC)cc3c1[C@H](C2)N(C)CC3 [Tetrandrine, Berbaman, 6,6',7, 12-tetramethoxy-2,2'-dimethyl-, (1β)-]
[1]
  viability at 3.33 µM: 93.9%
  viability at 10 µM: 44%
  viability at […]: 96.8% and 97%
[6]
  Fluorescence (%area): 93.6 %area
[2]
  EC50: 1400 nM
[3]
  CC50: > 20 µM

## COc1c(O)cc2oc3cc(O)c(CC=C(C)C)c(O)c3c(=O)c2c1CC=C(C)C [Mangostin, 9H-Xanthen-9-one, 1,3,6-trihydroxy-7-methoxy-2,8-bis (3-methyl-2-butenyl)-]
[6]
  Fluorescence (%area): 102.5 %area

## O[C@H]1[C@H]2c3cc4c(cc3CN3CCC(=C[C@@H]1O)[C@H]23)OCO4 [Lycorine]
[1]
  viability at 0.37 µM: 93.2%
  viability at 3.33 µM: 68.1%
  viability at 10 µM: 66.6%
  viability at […]: 82.9% and 95%
[2]
  EC50: 500 nM
[3]
  CC50: > 20 µM
[4]; U-87 MG cell viability (%)
  viability at 0.37 µM: 92.9%
  viability at 3.33 µM: 67.1%
  viability at 10 µM: 61.2%
  viability at […]: 81.7% and 97.3%
[5]
  replication of TC-83: dose-dependently inhibited replication
[7]
  replication of DENV2: dose-dependently inhibited replication

## CC[C@@H](C(=O)[C@@H](C)[C@@H](O)[C@H](C)[C@@H]1O[C@@H]([C@@H](CC)C(=O)O)CC[C@@H]1C)[C@H]1O[C@]2(C=C[C@@H](O)[C@]3(CC[C@@](C)([C@H]4CC[C@](O)(CC)[C@H](C)O4)O3)O2)[C@H](C)C[C@@H]1C [salinomycin]
[6]
  Fluorescence (%area): greater than 15

## CNC(=O)CN1CCC(Oc2cc3c(Nc4cccc(Cl)c4F)ncnc3cc2OC)CC1 [Sapitinib]
[8]
  EC50: 2600 nM
[4]
  CC50: > 20 µM
[9]
  IC50: 1.4 nM
[10]
  EC50: 1800 nM
[11]
  activity at 0.00305 µM: 37.7%
  activity at 0.0274 µM: 10.2%
  activity at 0.08 µM: 5.52%
  activity at 0.25 µM: 2.84%
  activity at 0.74 µM: 1.25%
  activity at 2.22 µM: 2.36%
  activity at 6.67 µM: 1.4%
  activity at 20 µM: 1.27%
  activity at 60 µM: 0%
  activity at […]: 18.7% and 54.8%
[12]
  IC50: 12 nM
[13]
  CC50: > 20 µM
[13]; Calu-3 viability (%)
  viability: 82.2%

## CC[C@@]1([C@@H]2O[C@@H]([C@H]3O[C@@](O)(CO)[C@H](C)C[C@@H]3C)C[C@@H]2C)CC[C@H]([C@]2(C)CC[C@]3(C[C@H](O)[C@@H](C)[C@@H]([C@@H](C)[C@@H](OC)[C@H](C)C(=O)O)O3)O2)O1 [Monensin]
[1]
  viability at 0.37 µM: 70.5%
  viability at 3.33 µM: 32.2%
  viability at 10 µM: 22.1%
  viability at […]: 47.9% and 83.7%
[2]
  EC50: 1200 nM
[3]
  CC50: > 20 µM
[5]
  replication of TC-83: dose-dependently inhibited replication
[7]
  replication of DENV2: dose-dependently inhibited replication

## N#C[C@@]1(c2ccc3c(N)ncnn23)O[C@H](CO)[C@@H](O)[C@H]1O [GS-441524]
[6]
  rescue of Vero-eGFP cells from SARS-CoV-2-induced lethality, dose response: dose-dependent anti-SARS-CoV-2 activity

## CC(=O)O[C@@H]1C[C@H]2C(C)(C)C(=O)C=C[C@]2(C)[C@H]2CC[C@@]3(C)[C@H](c4ccoc4)OC(=O)[C@H]4O[C@]43[C@@]21C [Gedunin]
[1]
  viability at 0.123 µM: 97.1%
  viability at 0.37 µM: 97.4%
  viability at 1.111 µM: 96.9%
  viability at 3.333 µM: 94.3%
  viability at 10 µM: 85%
[2]; 0.625 μM
  SARS-CoV-2 infection (%): 97.75% and 70.79% and 84.27%
[2]; 1.25 μM
  SARS-CoV-2 infection (%): 57.30% and 67.42% and 50.56%
[2]; 5 μM
  SARS-CoV-2 infection (%): 0.67% and 1.04% and 1.31%
[2]; 20 μM
  SARS-CoV-2 infection (%): 0.00337%
[2]
  EC50: 1400 nM
[3]
  CC50: > 20 µM
[3]; Cell viability (%), 0.625 μM
  viability at 0.625 µM: 107%
[3]; Cell viability (%), 1.25 μM
  viability at 1.25 µM: 105%
[3]; Cell viability (%)
  viability at 5 µM: 82.9%
  viability at 20 µM: 86.5%
[4]; U-87 MG cell viability (%)
  viability at 0.37 µM: 81.9%
  viability at 3.33 µM: 79.5%
  viability at 10 µM: 75.7%
  viability at […]: 79.1% and 86.8%
[14]; 0.37 µM
  Huh7 cell viability (%): 96.29%
[15]; 0.625 μM
  Cell viability (%): 106.58% and 104.74%
[15]; 1.25 μM
  Cell viability (%): 98.66%
[15]; 5 μM
  Cell viability (%): 83.37% and 75.82%
[15]; 20 μM
  Cell viability (%): 88.12% and 85.24%
[5]
  replication of TC-83: dose-dependently inhibited replication
[7]
  replication of DENV2: dose-dependently inhibited replication

## [N-]=[N+]=CC(=O)OC[C@H](N)C(=O)O [Azaserine]
[1]
  viability at 0.37 µM: 114%
  viability at 3.33 µM: 69.5%
  viability at 10 µM: 60.6%
  viability at […]: 107%
[2]
  EC50: 700 nM
[3]
  CC50: > 20 µM
[5]
  replication of TC-83: dose-dependently inhibited replication
[7]
  replication of DENV2: dose-dependently inhibited replication

## CCN(CC)CCNC(=O)c1c(C)[nH]c(/C=C2\C(=O)Nc3ccc(F)cc32)c1C [Sunitinib]
[1]
  viability at 0.16 µM: 102%
  viability at 0.63 µM: 99.8%
  viability at 1.25 µM: 89.5%
  viability at 10 µM: 59%
[16]; 5 µM
  U-87 MG cell viability (%): 106.81%
[2]; 0.5 μM
  SARS-CoV-2 infection (%): 94.03% and 125.37% and 116.42%
[2]; 1 μM
  SARS-CoV-2 infection (%): 116.42% and 85.07% and 94.03%
[2]; 5 μM
  SARS-CoV-2 infection (%): 16.57% and 14.33% and 15.67%
[2]
  EC50: 2400 nM
[3]
  CC50: 12.2 µM
[3]; Cell viability (%), 2.5 μM
  viability at 2.5 µM: 68.8%
[3]; Cell viability (%)
  viability at 5 µM: 66.1%
[4]; U-87 MG cell viability (%)
  viability at 0.25 µM: 118%
  viability at 0.74 µM: 110%
  viability at 2.5 µM: 106%
  viability at 20 µM: 44.6%
[14]; 1.25 µM
  Huh7 cell viability (%): 90.21%
[14]; 2.5 µM
  Huh7 cell viability (%): 75.37%

## CS(=O)(=O)CCNCc1ccc(-c2ccc3ncnc(Nc4ccc(OCc5cccc(F)c5)c(Cl)c4)c3c2)o1 [Lapati-nib]
[16]; 0.37 µM
  U-87 MG cell viability (%): 129.28%
[2]; 0.25 μM
  SARS-CoV-2 infection (%): 46.09% and 52.84% and 47.65%
[2]; 0.74 μM
  SARS-CoV-2 infection (%): 18.11% and 21.05% and 22.00% and 22.88% and 28.58%
[2]; 2.22 μM
  SARS-CoV-2 infection (%): 20.01% and 16.81% and 28.24% and 14.29% and 20.00%
[3]; Cell viability (%)
  viability at 20 µM: 67%

## CNc1ccc2oc(C[C@H]3O[C@@]4(CC[C@H]3C)O[C@H]([C@H](C)C(=O)c3ccc[nH]3)[C@H](C)C[C@H]4C)nc2c1C(=O)O [Calcimycin]
[1]
  viability at 0.37 µM: 98%
  viability at 3.33 µM: 50.5%
  viability at 10 µM: 23.5%
  viability at […]: 77.7% and 102%
[2]
  EC50: 600 nM
[3]
  CC50: > 20 µM
[5]
  replication of TC-83: dose-dependently inhibited replication
[7]
  replication of DENV2: dose-dependently inhibited replication

## CC(C)(C)NCC(O)c1ccc(O)c(CO)c1 (stereo not drawn) [Salbutamol]
[2]
  activity against SARS-CoV-2: minimal to no activity
  EC50: > 20000 nM
[3]
  CC50: > 20 µM
[5]
  replication of TC-83: minimal to no activity
[7]
  replication of DENV2: minimal to no activity

## CCC(CC)COC(=O)[C@H](C)N[P@](=O)(OC[C@H]1O[C@@](C#N)(c2ccc3c(N)ncnn23)[C@H](O)[C@@H]1O)Oc1ccccc1 [Remdesivir]
[6]
  rescue of Vero-eGFP cells from SARS-CoV-2-induced lethality, dose response: dose-dependent anti-SARS-CoV-2 activity

## O=C1NCN(c2ccccc2)C12CCN(CCCC(c1ccc(F)cc1)c1ccc(F)cc1)CC2 [Fluspirilene]
[1]
  viability at 0.37 µM: 93.4%
  viability at 3.33 µM: 87.3%
  viability at 10 µM: 70.9%
  viability at […]: 93.9% and 95.5%
[2]
  EC50: 15200 nM
[3]
  CC50: > 20 µM
[5]
  anti-TC-83 and DENV2 activity compared with anti-SARS-CoV-2 activity: more potent

## CC(C)(C)c1cc(/C=C(\C#N)C(N)=S)cc(C(C)(C)C)c1O [Tyrphostin AG 879]
[1]
  viability at 0.37 µM: 100%
  viability at 3.33 µM: 98.8%
  viability at 10 µM: 95.1%
  viability at […]: 102% and 98.9%
[2]
  EC50: 600 nM
[3]
  CC50: > 20 µM
[5]
  replication of TC-83: dose-dependently inhibited replication
[7]
  replication of DENV2: dose-dependently inhibited replication
